Test results reported in patent US4590203A, “Derivatives of thiophene-2-carboxylic acid and their pharmaceutically acceptable acid or base addition salts and use in treatment of conditions caused by thromboxane A2” (Laevosan-Gesellschaft m.b.H. & Co. KG, priority 1982, dated 1986).

Experiments:
thromboxane synthetase = biological target: T1, thromboxane synthetase (Homo sapiens, UniProt P24557); assay: inhibition of thromboxane (TX) formation in thrombin stimulated washed platelets, TXB2 specific radioimmunoassay; type: cell-based; details: for IC50: 0,6 IU/ml thrombin stimulated human washed platelets, TXB2 specific radioimmunoassay; for inhibition of TXB2-formation: concentration not given; for specificity as inhibitor of thromboxane synthetase: in vitro-study, inhibition of TX formation on platelet aggregation
T1 construct: thrombin stimulated human washed platelets; endogenous in cells; host or cells: human washed platelets
T1 sequence (P24557 1-533): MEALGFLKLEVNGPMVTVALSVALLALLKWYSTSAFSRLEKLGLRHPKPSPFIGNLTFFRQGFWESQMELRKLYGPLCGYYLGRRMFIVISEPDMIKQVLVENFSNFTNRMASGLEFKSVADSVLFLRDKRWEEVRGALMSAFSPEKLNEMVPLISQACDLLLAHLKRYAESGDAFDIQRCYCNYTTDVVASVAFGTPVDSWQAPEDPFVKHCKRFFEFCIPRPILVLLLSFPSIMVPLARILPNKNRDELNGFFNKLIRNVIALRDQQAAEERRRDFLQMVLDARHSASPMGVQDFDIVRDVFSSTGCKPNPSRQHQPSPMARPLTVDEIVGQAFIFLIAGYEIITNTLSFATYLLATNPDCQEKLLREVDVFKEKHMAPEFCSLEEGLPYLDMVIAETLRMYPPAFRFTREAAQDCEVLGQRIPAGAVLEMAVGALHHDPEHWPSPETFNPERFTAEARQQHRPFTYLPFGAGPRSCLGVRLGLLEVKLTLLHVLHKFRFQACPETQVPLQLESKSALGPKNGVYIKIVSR
Procedure: (§1) In 0,6 IU/ml thrombin stimulated human washed platelets the IC50 (μM) for inhibition of TX formation (measured by TXB2 specific radioimmunoassay) was 1,1 for LG 82-4-00 and 1,3 for LG 82-4-01. The two substances inhibited TXB2 -formation and 1-2 μg/ml collagen induced platelet aggregation by more than 95%.

platelet aggregation [1] = assay: collagen induced platelet aggregation; type: cell-based, human; details: 1-2 μg/ml collagen; concentration not given
Procedure: as §1

platelet aggregation [2] = assay: proaggregatory activity and primary wave ADP aggregation; type: cell-based
Excerpt: Neither LG 82-4-00 nor LG 82-4-01 had vasoconstrictor, proaggregatory or antagonistic activity or affected primary wave ADP aggregation (P >0,05).

SMILES | IC50 (thromboxane synthetase) [nM] | inhibition of TXB2-formation (thromboxane synthetase) | specificity as inhibitor of thromboxane synthetase (thromboxane synthetase) | inhibition of collagen induced platelet aggregation (platelet aggregation [1]) | proaggregatory activity (platelet aggregation [2])
Cl.O=C(O)c1ccc(OCCn2ccnc2)s1 [LG 82-4-00, 5-[2-(1-Imidazolyl)-1-ethoxy]thiophene-2-carboxylic acid hydrochloride] | 1100 | more than 95% | specific inhibitors of thromboxane synthetase | more than 95% | Neither
Cl.O=C(O)c1cc(Cl)c(OCCn2ccnc2)s1 [LG 82-4-01, 4-Chloro-5-[2-(1-imidazolyl)-1-ethoxy]-thiophene-2-carboxylic acid hydrochloride] | 1300 | more than 95% | specific inhibitors of thromboxane synthetase | more than 95% | Neither
